Experimental data from publication PMC2864911, “Effect of Common Buffers and Heterocyclic Ligands on the Binding of Cu(II) at the Multimetal Binding Site in Human Serum Albumin” (Bioinorganic Chemistry and Applications, 2010).

Assays:
[1] = literature values ref 30–32; cited from earlier work
[2] = molecular target: T1, Multimetal Binding Site (MBS) of Human Serum Albumin (HSA) (Homo sapiens, UniProt P02768); test: Visible-range CD titration of Cu(II) binding at MBS of HSA; settings: for log K app (apparent binding constant of the Cu(II)-MBS complex): 100 mM ligand solution, pH 7.4, 25°C, HSA 0.3–0.5 mM, binary species only assumed; for CI (competitivity index): Cu(II) and Z = 1 μM, HSA = 0.5 mM; for CI (competitivity index) / log K e (MBS + Cu(L) = Cu(MBS)(L)) / log K T (Cu(MBS) + Cu(L) = Cu(MBS)(L) + Cu^2+): pH 7.4; for log K 111 (Cu^2+ + L + MBS = Cu(MBS)(L)): pH 7.4, conditional constant, ternary complex model; for log K e (MBS + Cu(L) = Cu(MBS)(L)): log K 111 = log K 11 + log K e; for log K T (Cu(MBS) + Cu(L) = Cu(MBS)(L) + Cu^2+): log K T = log K 111 − log K 11 − log K app (NaCl)
T1 construct: purchased Sigma
T1 sequence (P02768 25-609): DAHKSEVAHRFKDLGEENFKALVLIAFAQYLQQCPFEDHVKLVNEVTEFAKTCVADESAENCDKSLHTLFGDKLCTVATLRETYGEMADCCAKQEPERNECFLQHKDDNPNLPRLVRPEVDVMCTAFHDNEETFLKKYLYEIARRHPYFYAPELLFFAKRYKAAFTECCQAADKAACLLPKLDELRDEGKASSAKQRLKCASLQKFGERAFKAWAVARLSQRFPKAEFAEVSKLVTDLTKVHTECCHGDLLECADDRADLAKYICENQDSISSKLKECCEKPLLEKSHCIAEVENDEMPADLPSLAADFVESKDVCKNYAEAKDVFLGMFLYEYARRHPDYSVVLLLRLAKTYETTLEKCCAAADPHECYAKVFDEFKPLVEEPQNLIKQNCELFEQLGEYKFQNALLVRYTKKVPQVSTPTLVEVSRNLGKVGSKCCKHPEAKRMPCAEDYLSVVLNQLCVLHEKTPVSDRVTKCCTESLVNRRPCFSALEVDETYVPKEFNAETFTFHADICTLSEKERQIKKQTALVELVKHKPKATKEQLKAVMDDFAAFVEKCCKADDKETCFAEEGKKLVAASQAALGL
Protocol: The CD spectra were recorded at 25°C on a Jasco J-715 spectropolarimeter (JASCO, Japan Spectroscopic Co., Hiroshima, Japan), over the range of 300–800 nm, using a 1 cm cuvette. The spectra are expressed in terms of Δε = ε l − ε r, where ε l and ε r are molar absorption coefficients for left and right circularly polarized light, respectively. In buffer experiments the solutions contained 100 mM Hepes, Tris, Sodium Phosphate, or NaCl, at pH 7.4.
HSA was dissolved at 0.3–0.5 mM in either a 100 mM Hepes, Tris, Sodium Phosphate buffers, pH 7.4, or in an unbuffered 100 mM NaCl solution. The pH of both types of samples was controlled to remain in the 7.38–7.42 corridor and adjusted with submicroliter amounts of concentrated HCl or NaOH when necessary. Concentrations of stock solutions of HSA were estimated spectrophotometrically at 279 nm and by Cu(II) titrations. The fractional abundance of NTS in HSA was measured by careful CD titrations using calibrated Cu(II) solutions.
We chose sodium phosphate, Tris and Hepes as the most common substances used for buffering protein solutions at pH 7.4. Their effect on Cu(II) binding to HSA was studied at a 0.1 M concentration stage versus unbuffered 0.1 M NaCl, used as a control solution. The choice of the latter was dictated by the presence of 0.1 M chloride in the blood serum. The pH of the NaCl samples was controlled by additions of small quantities of concentrated HCl or NaOH solutions, when necessary. […] The titrations were monitored by CD spectroscopy, analogously to our previous studies.
A typical titration is presented on Figure 1.
Apparent binding constants (K app) for Cu(II)-MBS complexes in the presence of buffers were obtained from titrations presented in Figure 2. Table 1 contains also further constants, calculated relative to the Cu(II)-MBS interaction in NaCl, taken as corresponding to a 100% binary complex formation.
First, the effects of competition of buffers for Cu(II) were accounted for Literature protonation and Cu(II) binding constants of Hepes, Tris, and phosphate ions were used in these calculations. […] The reactions defining these constants are provided in the footnotes of Table 1.
Briefly, K 111 describes the overall formation of a ternary species, K 11 is the literature binding constant of the Cu(II) complex of a buffer, K e corresponds to the ternary complex formation by addition of buffer-complexed Cu(II) to MBS, and K T is the equilibrium constant of the formation of the ternary complex in the reaction of two binary complexes, thus featuring the tendency of binary components to form a ternary species. All these constants, except for K 11, are conditional in respect to the pH value of 7.4.

HSA = settings: cited from earlier work

SMILES	log K app (apparent binding constant of the Cu(II)-MBS complex) [2]	CI (competitivity index) ([2]; [L] = 0.5 mM)	CI (competitivity index) ([2]; [L] = 100 mM)	log K 111 (Cu^2+ + L + MBS = Cu(MBS)(L)) [2]	log K e (MBS + Cu(L) = Cu(MBS)(L)) [2]	log K T (Cu(MBS) + Cu(L) = Cu(MBS)(L) + Cu^2+) [2]	log K 11 (Cu^2+ + L = Cu(L)) [1]	HSA binding constant (HSA)
[Cl-].[Na+] [NaCl]	4.60(3)	7.62	7.62					
O=P(O)(O)O [Phosphate, sodium phosphate]	5.17(7)	8.04	10.13	8.2(1)	5.00	+0.40	3.20	
CC(=O)CC(c1ccccc1)c1c(O)c2ccccc2oc1=O (stereo not shown) [War, warfarin]								330000 M⁻¹

Now from value to compound, other results behind:

log K app (apparent binding constant of the Cu(II)-MBS complex) [2]	CI (competitivity index) ([2]; [L] = 0.5 mM)	CI (competitivity index) ([2]; [L] = 100 mM)	log K 111 (Cu^2+ + L + MBS = Cu(MBS)(L)) [2]	log K e (MBS + Cu(L) = Cu(MBS)(L)) [2]	log K T (Cu(MBS) + Cu(L) = Cu(MBS)(L) + Cu^2+) [2]	SMILES	log K 11 (Cu^2+ + L = Cu(L)) [1]	HSA binding constant (HSA)
4.45(5)	7.71	9.27	7.54(5)	4.32	−0.28	O=S(=O)(O)CCN1CCN(CCO)CC1 [Hepes, N-2-hydroxyethylpiperazine-N′-2-ethanesulfonic acid]	3.22	
4.23(6)	7.74	9.42	8.22(5)	4.17	−0.43	NC(CO)(CO)CO [Tris, 2-amino-2(hydroxymethyl)-1,3-propanediol]	4.05	
